According to patent publication US9067974B2, “Polymyxin derivatives and uses thereof” (priority 2006, dated 2015):

Columns and labels:
E. coli IH3080 (K1:O18) = assay: Well diffusion growth inhibition on LB agar plates (direct antibacterial activity); assay type: cell-based, Escherichia coli
Description: Peptides synthesized in Example 1, all carrying at least two (2) but not more than three (3) positive charges, were studied for their ability to inhibit the growth of E. coli. This was tested employing LB agar (LB Agar Lennox, Difco, BD, Sparks, Md., U.S.A) plates. The indicator organism E. coli IH3080 (K1:O18) was an encapsulated strain originally isolated from a neonate suffering from meningitis (Vaara et al. 1984) and obtained from National Public Health Institute, Helsinki, Finland.
(§1) From an overnight-grown culture of IH3080 on LB agar, a suspension of approx. 10^8 cells/ml was prepared in 0.9% NaCl. Aliquots of this suspension were then pipetted on the agar plates and the plates were gently shaken to spread the suspension evenly on the entire surface of the plate. Thereafter, the unabsorbed part of the suspension was removed by using a Pasteur pipette. After the surface had dried, small wells (diameter, 2 mm) were drilled on the plates (five wells per plate) by using a sterile sharp-edged narrow metal tube, single-use pipette tip, and vacuum suction. […] Controls included 0.9% NaCl solution without the compound to be tested. The plates were then incubated for 18 h at 37° C. whereafter the diameters of growth inhibition zones around each well were measured; the diameter of the well itself was not reduced. Finally, the diameters were converted to surface areas of growth inhibition (in square mm).

[1] = tested on: Acinetobacter baumannii ATCC 19606; assay: as above; assay type: cell-based; conditions: A. baumannii ATCC 19606
Description: (§2) From an overnight-grown culture of IH3080 on LB agar, a suspension of approx. 10^8 cells/ml was prepared in 0.9% NaCl. Aliquots of this suspension were then pipetted on the agar plates and the plates were gently shaken to spread the suspension evenly on the entire surface of the plate. Thereafter, the unabsorbed part of the suspension was removed by using a Pasteur pipette. After the surface had dried, small wells (diameter, 2 mm) were drilled on the plates (five wells per plate) by using a sterile sharp-edged narrow metal tube, single-use pipette tip, and vacuum suction. Samples (4 μl and 10 μl) of the peptide solution in 0.9% NaCl (at concentrations of 1 μg/ml and 0.1 μg/ml) were then pipetted to the wells and the sample fluids were allowed to absorb. Controls included 0.9% NaCl solution without the compound to be tested. The plates were then incubated for 18 h at 37° C. whereafter the diameters of growth inhibition zones around each well were measured; the diameter of the well itself was not reduced. Finally, the diameters were converted to surface areas of growth inhibition (in square mm).
(§3) Direct antibacterial activity of twelve NAB compounds against Acinetobacter baumannii ATCC 19606 and Pseudomonas aeruginosa ATCC 27853 was tested by using the susceptibility determination method described in Example 2. Five compounds (NAB7062, NAB734, NAB737, NAB739, and NAB740) had notable activity against A. baumannii. […] The antibacterial activity of NAB739 and NAB740 were as strong as or even stronger than that of polymyxin B.

[2] = tested on: Pseudomonas aeruginosa ATCC 27853; assay: as above; assay type: cell-based; conditions: Ps. aeruginosa ATCC 27853
Description: as §2, §3

E. coli IH3080 = assay: Sensitization to rifampin: well diffusion growth inhibition on LB plates containing rifampin; assay type: cell-based, Escherichia coli; conditions: 4 μg of compound
Description: as §1

A. baumannii ATCC 19606 = assay: as above; assay type: cell-based, Acinetobacter baumannii; conditions: 4 μg of compound
[3] = tested on: Ps. aeruginosa ATCC 27853; assay: as above; assay type: cell-based, Pseudomonas aeruginosa; conditions: 4 μg of compound

Substance | Antibacterial activity (growth inhibition area around a well) (E. coli IH3080 (K1:O18); 4 μg of compound per well) [square millimeters] | Antibacterial activity (growth inhibition area around a well) (E. coli IH3080 (K1:O18); 10 μg of compound per well) [square millimeters] | Antibacterial activity (growth inhibition area around a well) ([1]; 4 μg per well) [square millimeters] | Antibacterial activity (growth inhibition area around a well) ([1]; 10 μg per well) [square millimeters] | Antibacterial activity (growth inhibition area around a well) ([2]; 4 μg per well) [square millimeters] | Antibacterial activity (growth inhibition area around a well) ([2]; 10 μg per well) [square millimeters] | Antibacterial activity in the presence of rifampin (growth inhibition area around a well) (E. coli IH3080; rifampin 0 μg/ml) [square millimeters] | Antibacterial activity in the presence of rifampin (growth inhibition area around a well) (E. coli IH3080; rifampin 0.1 μg/ml) [square millimeters] | Antibacterial activity in the presence of rifampin (growth inhibition area around a well) (E. coli IH3080; rifampin 1.0 μg/ml) [square millimeters] | Antibacterial activity in the presence of rifampin (growth inhibition area around a well) (A. baumannii ATCC 19606; rifampin 0 μg/ml) [square millimeters] | Antibacterial activity in the presence of rifampin (growth inhibition area around a well) (A. baumannii ATCC 19606; rifampin 0.1 μg/ml) [square millimeters] | Antibacterial activity in the presence of rifampin (growth inhibition area around a well) (A. baumannii ATCC 19606; rifampin 0.3 μg/ml) [square millimeters] | Antibacterial activity in the presence of rifampin (growth inhibition area around a well) ([3]; rifampin 0 μg/ml) [square millimeters] | Antibacterial activity in the presence of rifampin (growth inhibition area around a well) ([3]; rifampin 0.1 μg/ml) [square millimeters] | Antibacterial activity in the presence of rifampin (growth inhibition area around a well) ([3]; rifampin 0.3 μg/ml) [square millimeters]
OA-Thr-DAla-cy[Dab-Dab-DPhe-Thr-Dab-Dab-Thr-] [NAB 738] | 0 | 64 | 0 | 0 | 0 | 0 | 0 | 133 | 177 | 0 | 95 | 154 | 0 | 13 | 13
OA-Thr-DSer-cy[Dab-Dab-DPhe-Leu-Dab-Dab-Thr-] [NAB 739] | 133 | 177 | 113 | 177 | 38 | 79 | 133 | 177 | 201 | 113 | 177 | 314 | 38 | 64 | 64
OA-Thr-DThr-cy[Dab-Dab-DPhe-Thr-Dab-Dab-Thr-] [NAB 737] | 133 | 201 | 38 | 79 | 0 | 28 | 133 | 177 | 201 | 38 | 201 | 283 | 0 | 20 | 20
OA-Thr-Dab-cy[Dab-Dab-DPhe-Leu-Abu-Dab-Thr-] [NAB 716] | 13 | 64 | 0 | 0 | 0 | 0 | 13 | 133 | 165 | 0 | 0 | 64 | 0 | 0 | 0
OA-Thr-Dab-cy[Dab-Dab-DPhe-Leu-Dab-Abu-Thr-] [NAB 717] | 0 | 0 | 0 | 0 | 0 | 0 | 0 | 71 | 95 | 0 | 0 | 50 | 0 | 0 | 0
